Laboratory results as given in patent publication US20240010684A1, “MASP INHIBITORY COMPOUNDS AND USES THEREOF” (BAYER AKTIENGESELLSCHAFT, priority 2020, published 2024).
Where a SMILES comes first, the peptide text is derived from it. Bridges are numbered along the chain shown (N, C = ends). [ ]: non-standard residue; d: D form. tBuAla = CC(C)(C)C[C@H](N)C(=O)O; Pen = CC(C)(S)[C@H](N)C(=O)O

Experiments:
[1] = biological target: rat MASP1 (Rattus norvegicus (Rat), UniProt Q8CHN8); assay: Biochemical rat MASP1 assay (FRET substrate); conditions: Average IC50; recombinant rat MASP1; read-out: rat MASP1 IC50
Excerpt: A truncated cDNA sequence of rat MASP1encoding the fragment corresponding to the amino acids 302-704 with a C-terminal His Tag and N-terminal Ig-kappa secretion signal (SEQ ID No: 4) was subcloned into the mammalian expression vector pcDNA3.1 (Invitrogen).
(§1) The MASP1 or MASP2 expression vectors were transfected into the HEK293 (ATCC No. CRL-1573) cell line using Lipofectamine LTX® Reagent (Thermo-Fischer), as described by the manufacturer. The mature form of the recombinant rat MASP1 and MASP2 proteases were secreted into the culture medium. The MASP1 and MASP2 proteins were purified from the conditioned media by affinity chromatography on Ni-NTA Superflow resin (Qiagen) as described by the manufacturer.
4.2 Biochemical Rat MASP1 Assay.
Recombinant rat MASP1 enzyme produced in the HEK 293 cells was diluted in the reaction buffer (50 mM HEPES pH 8,0; 100 mM NaCl; 0,01% CHAPS; 0.5 mM Gluthathione) to the concentration of 4 nM and 25 μl was transferred into each single well of 384-well white microtiter plate (Greiner Bio One 781075). 1 μl of the inhibitor compound solution (dissolved in DMSO, at the corresponding concentration) or pure DMSO as a control was added to the same wells. The enzymatic reaction was initiated by addition of 25 μl of 40 μM solution of the FRET substrate Dabcyl-[…]-Glu(Edans)-NH2; (Dabcyl-4-((4-(dimethylamino)phenyl)azo)benzoic acid; Edans-5-[(2-Aminoethyl) amino]naphthalene-1-sulfonyl; custom synthesis by Jerini Peptide Technologies, Berlin) in the reaction buffer. The microtiter plate was incubated for 60-120 min at the temperature of 32 C. The increase of fluorescence intensity was measured in appropriate fluorescence plate reader (e.g. TECAN Ultra) using excitation wavelength of 340 nm and emission wavelength of 490 nm. IC50 values were calculated from percentage of inhibition of rat […] activity as a function of test compound concentration.

[2] = biological target: human MASP1 (Homo sapiens (Human), UniProt P48740); assay: Biochemical human MASP1 assay (FRET substrate); conditions: Average IC50; recombinant human MASP1; read-out: human MASP1 IC50
Method in brief: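 IC50 derived from % inhibition versus compound concentration, with fluorescence increase read at 320/420 nm after 60-120 min at 32 C. Enzyme: HEK293-secreted, His-tagged human MASP1 fragment 297-699 at 20 nM in HEPES pH 8,0 buffer with NaCl, CHAPS, glutathione; substrate ABZ-peptide-Lys(Dnp)-NH2 added as 20 μM solution.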

[3] = biological target: rat MASP2 (Rattus norvegicus (Rat), UniProt Q9JJS8); assay: Biochemical rat MASP2 assay (FRET substrate); conditions: Average IC50; recombinant rat MASP2; read-out: rat MASP2 IC50
Excerpt: as §1, with “The mature form of the recombinant rat MASP1 and MASP2 proteases were secreted into the culture medium.” left out, “M[…]” for “MASP2 proteins”

[4] = test system: Human C3-DEPOSITION SERUM; assay: C3 deposition assay, human serum on mannan-coated plates; format: biochemical; conditions: Average IC50, read-out: Human C3-DEPOSITION SERUM IC50
Method in brief: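 Plates coated overnight at 4° C with S. cerevisiae mannan (10 μg/mL, pH 9.6), blocked with 1% BSA in TBS 2 h at 37° C; washes in TBS/0.05% Tween 20/5 mM CaCl2. Antibodies diluted in wash buffer with 0.5% BSA. Colorimetric read-out at 450 nm.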

[5] = biological target: human MASP2 (Homo sapiens (Human), UniProt O00187); assay: Biochemical human MASP2 assay (FRET substrate); conditions: Average IC50; recombinant human MASP2; read-out: human MASP2 IC50
Method in brief: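 IC50 came from % inhibition across compound concentrations, with fluorescence (ex 340 nm, em 490 nm) read after 60-120 min at 32 C. Substrate was a DABCYL FRET peptide, added as a 60 μM solution, cleaved by HEK293-expressed, Ni-NTA-purified mature recombinant human MASP2.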

Sequence of human MASP2 (O00187 other isoform, or with tags, fused parts or gaps): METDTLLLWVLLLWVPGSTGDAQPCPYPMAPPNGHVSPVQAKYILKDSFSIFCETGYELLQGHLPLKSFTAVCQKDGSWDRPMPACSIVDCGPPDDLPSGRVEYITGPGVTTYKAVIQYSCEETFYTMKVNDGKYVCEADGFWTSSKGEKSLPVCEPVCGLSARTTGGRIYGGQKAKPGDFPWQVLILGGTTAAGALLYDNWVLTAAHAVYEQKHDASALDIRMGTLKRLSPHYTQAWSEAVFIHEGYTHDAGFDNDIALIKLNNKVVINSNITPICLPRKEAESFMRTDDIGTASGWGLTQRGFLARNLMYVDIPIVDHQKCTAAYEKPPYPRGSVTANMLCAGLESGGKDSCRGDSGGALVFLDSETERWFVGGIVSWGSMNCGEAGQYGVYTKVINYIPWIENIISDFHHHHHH
Sequence of rat MASP2 (Q9JJS8 other isoform, or with tags, fused parts or gaps): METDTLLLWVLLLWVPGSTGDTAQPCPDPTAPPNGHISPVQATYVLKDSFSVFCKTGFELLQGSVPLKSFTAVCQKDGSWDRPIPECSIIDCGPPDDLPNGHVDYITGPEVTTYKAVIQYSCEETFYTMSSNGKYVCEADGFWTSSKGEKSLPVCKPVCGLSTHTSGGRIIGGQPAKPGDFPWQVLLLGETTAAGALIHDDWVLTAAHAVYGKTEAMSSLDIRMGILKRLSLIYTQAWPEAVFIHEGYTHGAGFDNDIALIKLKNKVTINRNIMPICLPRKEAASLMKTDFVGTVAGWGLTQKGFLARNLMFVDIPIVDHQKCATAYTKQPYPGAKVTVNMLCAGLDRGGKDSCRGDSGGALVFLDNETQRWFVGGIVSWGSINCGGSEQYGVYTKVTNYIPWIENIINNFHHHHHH
Sequence of rat MASP1 (Q8CHN8 other isoform, or with tags, fused parts or gaps): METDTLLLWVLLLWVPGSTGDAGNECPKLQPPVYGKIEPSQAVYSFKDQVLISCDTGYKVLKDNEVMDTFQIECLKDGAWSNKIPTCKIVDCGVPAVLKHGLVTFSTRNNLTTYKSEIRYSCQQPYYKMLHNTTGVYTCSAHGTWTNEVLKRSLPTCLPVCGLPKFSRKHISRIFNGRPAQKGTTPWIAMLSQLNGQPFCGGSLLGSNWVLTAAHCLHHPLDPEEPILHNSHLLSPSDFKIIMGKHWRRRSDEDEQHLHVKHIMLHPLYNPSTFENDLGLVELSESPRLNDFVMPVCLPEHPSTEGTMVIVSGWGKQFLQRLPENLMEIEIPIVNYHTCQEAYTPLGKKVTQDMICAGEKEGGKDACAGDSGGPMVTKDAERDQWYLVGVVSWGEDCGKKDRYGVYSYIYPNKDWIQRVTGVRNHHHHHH
Sequence of human MASP1 (P48740 other isoform, or with tags, fused parts or gaps): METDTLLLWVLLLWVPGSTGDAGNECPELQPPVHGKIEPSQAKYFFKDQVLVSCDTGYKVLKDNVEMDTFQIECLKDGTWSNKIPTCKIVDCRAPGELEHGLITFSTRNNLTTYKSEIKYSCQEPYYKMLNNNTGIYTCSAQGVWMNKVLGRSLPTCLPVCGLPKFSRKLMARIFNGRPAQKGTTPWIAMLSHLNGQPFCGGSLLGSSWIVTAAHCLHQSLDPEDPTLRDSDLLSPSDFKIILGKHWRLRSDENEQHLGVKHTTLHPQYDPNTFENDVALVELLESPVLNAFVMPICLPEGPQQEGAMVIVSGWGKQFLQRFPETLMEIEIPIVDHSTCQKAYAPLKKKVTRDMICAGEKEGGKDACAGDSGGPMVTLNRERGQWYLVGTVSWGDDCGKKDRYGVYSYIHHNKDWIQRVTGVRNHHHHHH

Compound `CC[C@H](C)[C@@H]1NC(=O)CN(C)C(=O)CCCCCNC(=O)[C@@H]2CCCN2C(=O)[C@H]([C@@H](C)CC)NC(=O)[C@H]2NC(=O)[C@H]([C@@H](C)CC)NC(=O)[C@@H]3CCCN3C(=O)[C@@H]3CCCN3C(=O)[C@H](CC(C)(C)C)NC(=O)[C@H](CO)NC(=O)[C@H](CCCNC(=N)N)NC(=O)[C@H](CO)NC(=O)[C@H](CSSC2(C)C)NC1=O` [Example 54, N-{3-[(6S,9S,12S,15S,18R,21S,33aS,39S,42R,45S,47aS,52aS)-21,39,45-tri[(2S)-butan-2-yl]-6-(2,2-dimethylpropyl)-9,15-bis(hydroxymethyl)-25,53,53-trimethyl-5,8,11,14,17,20,23,26,33,38,41,44,47,52-tetradecaoxopentacontahydro-1H,5H-18,42-(methanodithiomethano)tripyrrolo[2,1-c:2′,1′-o:2″,1″-r][1,4,7,10,13,16,19,22,25,28,31,34,37,40]tetradecaazacyclohexatetracontin-12-yl]propyl}guanidine] has an IC50 [1] of 180 nM, an IC50 [2] of 8.5 nM and an IC50 [3] of 18 nM. For the same compound, the IC50 [4] was 39.6 nM and the IC50 [5] was 33 nM.
`CC[C@H](C)[C@@H]1NC(=O)CCCNC(=O)[C@H](CC(=O)O)NC(=O)[C@@H]2CCCN2C(=O)[C@H]([C@@H](C)CC)NC(=O)[C@H]2NC(=O)[C@H]([C@@H](C)CC)NC(=O)[C@@H]3CCCN3C(=O)[C@@H]3CCCN3C(=O)[C@H](CC(C)(C)C)NC(=O)[C@H](CO)NC(=O)[C@H](CCCNC(=N)N)NC(=O)[C@H](CO)NC(=O)[C@H](CSSC2(C)C)NC1=O` [Example 35] showed an IC50 [1] of 63 nM, an IC50 [2] of 4.1 nM and an IC50 [3] of 24 nM. For the same compound, the IC50 [4] was 3.3 nM and the IC50 [5] was 17 nM.
Work on `CC[C@H](C)[C@@H]1NC(=O)CNC(=O)CNC(=O)[C@H](C)NC(=O)[C@@H](CC(=O)O)NC(=O)[C@@H]2CCCN2C(=O)[C@H]([C@@H](C)CC)NC(=O)[C@H]2NC(=O)[C@H]([C@@H](C)CC)NC(=O)[C@@H]3CCCN3C(=O)[C@@H]3CCCN3C(=O)[C@H](CC(C)(C)C)NC(=O)[C@H](CO)NC(=O)[C@H](CCCNC(=N)N)NC(=O)[C@H](CO)NC(=O)[C@H](CSSC2(C)C)NC1=O` [Example 39] (cyclo(AGGICSRS[tBuAla]PPI[Pen]IP[dD]); disulfide 5-13) yielded an IC50 [1] of 44 nM, an IC50 [2] of 6 nM and an IC50 [3] of 8 nM. For the same compound, the IC50 [4] was 33.6 nM and the IC50 [5] was 75 nM.
